Values of other authors, collected in patent US20180014537A1, “NOVEL COMPOSITIONS AND METHODS FOR CONTROLLING SOIL BORNE PATHOGENS OF AGRICULTURAL CROPS” (ADJUVANTS UNLIMITED LLC, priority 2015, published 2018).

How the values were obtained:
[1] = in vivo
[2] = system: Meloidogyne incognita; conditions: 3.2 uL per liter as a soil drench
[3] = system: tomato seedlings; conditions: at 24 hours, equivalent concentrations
[4] = soil drench

Row | Compound | less phytotoxic than the parent pelargonic acid [1] [fold] | control of Meloidogyne incognita [2] | mortality of seedling [3] [%] | concentration above which significant phytotoxicity occurred [4]
1 | CCCCCCCCC(=O)OC [PAME, pelargonic acid methyl ester] | 40 | good control | 100 | exceeded 4.8 uL per liter
2 | CCCCCC[C@@H](O)C/C=C\CCCCCCCC(=O)OC [ricinoleic acid methyl ester] |  |  | 0 | 
